Data as given in patent US10995126B2, “Immunogenic peptide containing a b cell epitope of tumor associated antigen L6” (National Health Research Institutes, priority 2016, dated 2021).
No end group written: not given here.

Experiments:
[1] = system: lung cancer cell line H2981; test: ADCC Cr51 release assay with sera of immunized mice, H2981 target cells; type: cell-based, human; settings: formulated with PELC/CpG; sera collected at 6 weeks
Experimental: (§1) FIG. 9 is a set of graphs showing that peptide formulated with different adjuvants induced antibody-dependent cellular cytotoxicity (ADCC) against human cancer cells. Mice were immunized with peptide Th-EP1-A2-5 in various adjuvants twice at a two-week interval. Sera were collected at 6 weeks for ADCC assay. (A) Lung cancer cell line H2981 was used as a target. (B) Human breast cancer cell lines MCF7 and MCF7-TAL6 were used as targets. TAL6-specific ADCC was determined by Cr^51 release assay. The lysis percentage was calculated as: immunized serum (lysis %)−naïve serum (lysis %) ***P<0.001.
(§2) Mice were immunized with Th-A2-5-EP1 formulated with different adjuvants twice at a two-week interval. Sera was collected at 6 weeks for ADCC assay. […] TAL6-specific ADCC was determined by Cr51 release assay. The lysis percentage was calculated by subtracting the […].
(§3) Mice spleen cells were used as effector cells for the ADCC assay. […] After 6 hr, supernatants were harvested to measure the radioactivity using a gamma counter. Spontaneous release was measured in wells containing target cells alone. […] Percent cytotoxicity was determined according to the formula: percent lysis=100×(experimental ^51Cr release−spontaneous ^51Cr release)/(maximal ^51Cr release−spontaneous ^51Cr release).

[2] = system: breast cancer cell lines MCF7 and MCF7-TAL6; test: ADCC Cr51 release assay with sera of immunized mice, MCF7 and MCF7-TAL6 target cells; type: cell-based, human; settings: formulated with PELC/CpG; sera collected at 6 weeks
Experimental: as §1, §2, §3

[3] = system: anti-TAL6 monoclonal antibody L6; test: ELISA epitope mapping: detection of coated TAL6 peptides by L6 mAb; type: binding; settings: plate coated with peptide 10 μg/ml; antibody 1:500
Experimental: FIG. 1 includes (A) a scheme showing the overlapping peptides that cover the extracellular domains of TAL6: EL1 (residues 31 to 46 of SEQ ID NO: 1); EL2 (residues 114 to 164 of SEQ ID NO: 1); EP1 (SEQ ID NO: 4); EP2 (SEQ ID NO: 17); EP3 (SEQ ID NO: 18); and EP4 (SEQ ID NO: 19); and (B) a graph showing binding of the peptides to anti-TAL6 antibodies. A 96-well plate was coated with the indicated peptides (10 μg/ml) in each well. Three anti-TAL6 antibodies (1:500) were used to detect these peptides. CP: Control peptide.
FIG. 10 is a graph showing identification of residues in EP1 that are important for antibody binding using alanine scanning. The amino acid residues in EPI were individually replaced with alanine to generate EP1-1 to EP1-20 peptides. Monoclonal antibody L6 was used to detect these peptides. EP1 is a positive control and EP-3 is a negative control.
Three purified anti-TAL6 monoclonal antibodies (1F4, 9C7, L6) were used to detect the surface expression TAL6 on EL-4 (EL-4/L6) cells. See Chang et al., Int J Cancer, 116 (2005) 243-252. […] To further map the antibody-binding epitopes, five peptides (EL1 and EP1-4) that cover the EL1 and EL2 extracellular loops were used to determine the linear B cell epitopes using ELISA. […]
(§4) For antibody epitope mapping, L6, 9C7 and 1F4 Mabs were assayed by ELISA. […] Absorbance was measured at 450 nm.

native TAL6 = target: T1, native TAL6 (Homo sapiens, UniProt P30408); test: Anti-TAL6 antibody in sera of immunized mice, cell-based ELISA; type: in vivo, C57BL/6 mice; settings: formulated with IFA/Th, sera 1:500, EL4-L6 O.D. minus EL4 O.D.
T1 construct: expressed in transfected cells; host or cells: EL-4 (mouse lymphoma) cells expressing TAL6 (EL-4/L6, EL4-L6)
T1 sequence (P30408 1-202): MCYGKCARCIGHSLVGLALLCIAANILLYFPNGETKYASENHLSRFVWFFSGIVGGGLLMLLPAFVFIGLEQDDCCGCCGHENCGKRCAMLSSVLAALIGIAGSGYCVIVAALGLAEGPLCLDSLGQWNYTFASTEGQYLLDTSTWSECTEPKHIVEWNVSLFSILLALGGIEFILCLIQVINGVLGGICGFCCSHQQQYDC
Experimental: (§5) FIG. 2 is a set of graphs showing that immunization of WT mice with the EP1 peptide induced anti-tumor immunity. EP1 or positive control MCF-7/TAL6 cells formulated with incomplete Freund's adjuvant (IFA) were administered to mice twice at a two-week interval. (A) Anti-TAL6 antibody titers were determined by using cell-based ELISA. Antigen-specific antibody was calculated as: EL4-L6 (O.D.)−EL4 (O.D.). (B) TAL6-specific ADCC was determined in a Cr^51 release assay. The lysis percentage was calculated as immunized serum (lysis %)−naïve serum (lysis %). ***P<0.001.
To test whether the EP1 peptide could raise antibodies that bind native TAL6, the EP1 peptide or MCF-7/L6 cells (as positive control) were formulated with IFA/Th and administered to C57BL/6 mice. Sera from immunized mice were collected and the anti-TAL6 antibody titers were analyzed using cell-based ELISA. […] See FIG. 2, A. Whether EP1 immunization could induce antibody-dependent cellular cytotoxicity (ADCC) was also investigated. Sera (1:100) from mice immunized with either EP1 or MCF-7/L6 cells could kill TAL6-expressed EL4 (EL4/L6) cells but not EL4 parental cells (61.82%±6.12% v.s. 0.36%±0.96% and 65.54%±1.77% v.s. 11.41%±3.094%). […]
as §4

[4] = system: TAL6-expressed EL4 (EL4/L6) cells; test: ADCC Cr51 release assay with sera of immunized mice, EL4/L6 target cells; type: cell-based; settings: C57BL/6 mice, IFA; sera 1:100; immunized serum lysis % minus naïve serum lysis %
Experimental: as §5
FIG. 6 is a set of graphs showing that immunization with PELC/CpG/Th-A2-5-EP1 induced high levels of humoral and cellular immunity in HLA-A2 mice. The Th-A2-5-EP1 peptide was formulated with different adjuvants. […] (A) IFN-γ-secreting cells were determined using IFN-γ ELISpot assay. Results are expressed as mean SD. ***P<0.001. […] (D) TAL6-specific ADCC was determined by Cr^51 release assay. The lysis percentage was calculated as: immunized serum (lysis %)—naïve serum (lysis %) ***P<0.001.
(§6) To test whether the EP1 peptide could raise antibodies that bind native TAL6, the EP1 peptide or MCF-7/L6 cells (as positive control) were formulated with IFA/Th and administered to C57BL/6 mice. Sera from immunized mice were collected and the anti-TAL6 antibody titers were analyzed using cell-based ELISA. […]

EL4 parental cells = test: ADCC Cr51 release assay with sera of immunized mice, EL4 parental target cells; type: cell-based; settings: C57BL/6 mice, IFA; sera 1:100; immunized serum lysis % minus naïve serum lysis %
Experimental: as §5, §6, §3

B16-L6 cells = test: Immunization then subcutaneous B16-L6 tumor challenge in WT mice; type: in vivo, C57BL/6 mice
Experimental: EP1 or positive control MCF-7/TAL6 cells formulated with incomplete Freund's adjuvant (IFA) were administered to mice twice at a two-week interval. (A) At 7 days after the final immunization, B16-L6 (2×10^4) cells were inoculated subcutaneously. Tumor growth was monitored 2-3 times per week. (B) The survival rate of the mice was determined.
Mice were immunized with 50 mg of EP1 formulated with the indicated adjuvants twice at a 14-day interval. (A) At 7 days after the second immunization, 2×10^4 of B16/TAL6 cells were injected subcutaneously. Tumor growth was monitored 2-3 times per week. Results obtained are expressed as mean SD (n=6). (B) Mouse survival rate was monitored. Results are expressed as means ±SD (*P<0.05.**P<0.01).
See FIG. 2, B. To investigate if the EP1 peptide could induce anti-tumor activity, mice were immunized with EP1 peptide and then challenged with B16-L6 cells (2×10^4/mouse) at 7 days after the final immunization.
The EP1 peptide was formulated with different adjuvants. Mice were immunized with 50 mg of the formulations twice at a 14-day interval. At 7 days after the second immunization, 2×10^4 B16/TAL6 cells were injected subcutaneously to the mice. Tumor growth was monitored 2-3 times per week.
HLA-A2 Tg mice were injected subcutaneously (s.c.) twice at a 2-week interval with peptide formulated in IFA, alum, DOTAP liposome, PELC nanoparticles, or TLR9 agonist CpG. Seven days after the second immunization, the B16-L6-A2 or B16-L6 cells (2×10^4) were inoculated s.c. on the opposite site of the peptide injection. Tumor sizes were measure 2-3 times per week. Tumor volume was calculated using the formula: tumor volume=length×width×width/2.

Sequence	ADCC cytotoxicity, rank among adjuvant formulations [1]	ADCC cytotoxicity, rank among adjuvant formulations [2]	detection of the peptide by L6 mAb (ELISA) [3]	anti-TAL6 antibody amount in sera versus vehicle (PBS) (native TAL6)	ADCC lysis of EL4/L6 cells [4]	ADCC lysis of EL4 parental cells (EL4 parental cells)	tumor growth (B16-L6 cells; formulated with IFA, immunized twice, B16-L6 2×10^4/mouse s.c. 7 days after final immunization)	anti-tumor effects (tumor growth, survival) (B16-L6 cells; formulated with PELC/CpG, 50 mg twice at 14-day interval, 2×10^4 B16/TAL6 cells s.c.)	anti-tumor effect (tumor growth) (B16-L6 cells; formulated with different adjuvants, 50 mg twice at 14-day interval, 2×10^4 B16/TAL6 cells s.c.)
AKFVAAWTLKAAAAAALLMLLPAFVAAAGLAEGPLCLDSLGQWNYTFA [Th-A2-5-EP1]	strongest cytotoxicity	strongest cytotoxicity	–	–	–	–	–	–	–
GLAEGPLCLDSLGQWNYTFA [EP1]	–	–	could be detected by L6 mAb	significantly higher amount of antibody	61.82%±6.12%	0.36%±0.96%	significantly inhibited tumor growth	induced anti-tumor effects	exhibited an anti-tumor effect
